According to patent US20060074098A1, “Methods of treatment of amyloidosis using ethanolcyclicamine aspartyl protease inhibitors” (priority 2004, published 2006):
“And” between values parts separate entries of the source, which are not always exact repeats. Equal entries are not always repeated.

Tests used:
[1] = test system: catE / beta-secretase (BACE); test: CatE/BACE selectivity (ratio of IC50 values); type: biochemical; conditions: each value is an average of four experimental runs, multiple values = more than one experiment
Procedure: (§1) Investigation of potential beta-secretase inhibitors produced compounds with increased selectivity for beta-secretase over other aspartyl proteases such as cathepsin D (catD), cathepsin E (catE), Human Immunodeficiency Viral (HIV) protease, and renin. Selectivity was calculated as a ratio of inhibition (IC50) values in which the inhibition of beta-secretase was compared to the inhibition of other aspartyl proteases.
The compounds of formula (I) can be selective for beta-secretase versus catE. […] Selectivity is reported as the ratio of IC50(catE):IC50(BACE).
(§2) In the following examples, each value is an average of four experimental runs and multiple values for one compound indicate that more than one experiment was conducted.

[2] = test system: catD / beta-secretase (BACE); test: CatD/BACE selectivity (ratio of IC50 values); type: biochemical; conditions: each value is an average of four experimental runs; multiple values = more than one experiment
Procedure: as §1
The compounds of formula (I) can be selective for beta-secretase versus catD.
as §2

SMILES	Selectivity IC50 catE/IC50 BACE [1]	Selectivity IC50 catD/IC50 BACE [2]	Selectivity IC50 catE/IC50 BACE ([1]; listed as 8.3)
CC(=O)NC(Cc1cc(F)cc(F)c1)C(O)C1CC2CCCCC2CN1 (stereo not shown) [Example 8.2, N-(1-(decahydroisoquinolin-3-yl)-3-(3,5-difluorophenyl)-1-hydroxypropan-2-yl)acetamide]	>3.3	>3.3	–
CCCC1CCNC(C(O)C(Cc2cc(F)cc(F)c2)NC(C)=O)C1 (stereo not shown) [Example 8.1, N-[1-(3,5-Difluoro-benzyl)-2-hydroxy-2-(4-propylpiperidin-2-yl)-ethyl]-acetamide]	–	> 2.9 and > 2.4	> 2.9 and > 2.4
